In patent publication US10130101B2 (priority 2015, dated 2018):

Legend:
[1] = test system: pyrethroid resistant bed bugs, Cimex lectularius (ECL-05 strain); format: in vivo; conditions: day 7; 0.05% imidacloprid formulation, not diluted; direct spray 0.50 g per replication
Description: Treatments 1 to 4 were diluted in acetone to 5.5% w/w. Treatment 5 was not diluted.
The ECL-05 strain of bugs was used in the study. This strain represents an aggregate colony of pyrethroid resistant strains of bed bugs from Minnesota, Wisconsin, Florida and New Jersey.
Adult male bed bugs, 5 to 6 weeks old, were sorted from the colonies at the University of Minnesota using a pair of soft tissue forceps (Fisher Scientific, Pittsburgh, Pa., USA). Bed bugs were transferred to Applicant and maintained in a glass jar with a mesh screen top, as described above, in an environmental chamber (Darwin Chamber Company, Saint Louis, Mo., USA) at 27° C. and 65% relative humidity until testing.
For testing, 10 adult males were transferred into specific bed bug spray containers using soft tissue forceps. Bed bug spray containers were constructed by placing a 150 mm Whatman filter paper (Fisher Scientific, Pittsburgh, Pa., USA) onto the top of a stainless steel, round ring (10 cm in diameter and 3.25 cm in height). A second stainless steel ring of similar dimensions was then stacked on top of the base ring creating a double-ring structure with a filter paper surface in between. The sides of the double ring structure were secured with laboratory labeling tape (Fisher Scientific, Pittsburgh, Pa., USA). […]

[2] = test system: pyrethroid resistant bed bugs; experiment: whole plant or invertebrate; format: in vivo; conditions: Cimex lectularius, 168 h; 7 days; imidacloprid at 0.05% w/w
Excerpt: For testing, 10 adult males were transferred into specific bed bug spray containers using soft tissue forceps. Bed bug spray containers were constructed by placing a 150 mm Whatman filter paper (Fisher Scientific, Pittsburgh, Pa., USA) onto the top of a stainless steel, round ring (10 cm in diameter and 3.25 cm in height). A second stainless steel ring of similar dimensions was then stacked on top of the base ring creating a double-ring structure with a filter paper surface in between. The sides of the double ring structure were secured with laboratory labeling tape (Fisher Scientific, Pittsburgh, Pa., USA). In the resulting setup, the filter paper provides a non-abrasive surface for bed bugs to rest on while it also serves to absorb any overspray in the container. Following the transfer of bed bugs from the colony jar, bed bugs were allowed to recover for 1 hour in the spray container before treatment application commenced.
Treatments were administered using a DeVilbiss 151 atomizer (The DeVilbiss Co., Glendale Heights, Ill., USA) attached to a Paasche D500 air compressor (Paasche Airbrush Company, Chicago, Ill., USA). Treatment volume was set at 0.50 g of treatment solution per replication. […]
Mortality at day 7 was analyzed by one-way analysis of variance (ANOVA). […]

O=[N+]([O-])NC1=NCCN1Cc1ccc(Cl)nc1 [Imidacloprid, imidacloprid]
Mortality (%) [1]: 100.0% | mortality at 0.05 % strength [2]: 100%
